Laboratory results from article PMC6394990, “Detailed characterization of the solution kinetics and thermodynamics of biotin, biocytin and HABA binding to avidin and streptavidin” (PLoS ONE, 2019).

Assays:
avidin (AV) [1] = biological target: T1, avidin (AV) (Gallus gallus, UniProt P02701); experiment: Relaxation kinetics of unlabeled biotin reacting with the AV-HABA complex; type: binding; conditions: pH 8 and 23°C; read-out: konB, association rate of unlabeled B7 to the final site (AV-HABA3)
T1 construct: purchased Calbiochem (La Jolla, CA)
T1 sequence (P02701 25-152): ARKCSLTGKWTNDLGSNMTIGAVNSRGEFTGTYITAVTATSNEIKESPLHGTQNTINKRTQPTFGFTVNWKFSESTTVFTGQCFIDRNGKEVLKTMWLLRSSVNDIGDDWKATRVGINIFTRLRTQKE
Protocol: All of the following protein concentrations are presented on a binding site basis, thus in the case of the HABA association reactions for AV were measured at 23.0 ± 0.1°C with a concentration of 87 μM HABA and 7.7 μM AV. The AV-HABA relaxation reactions were conducted with a preformed AV-HABA complex made up of 200 μM HABA and 10 μM AV, flowed against varying amounts of B7 from 100 μM up to 4000 μM for a [HABA]/[B7] ratio that ranged from 0.05 to 2.
The relaxation experiments were prepared at concentrations in which HABA occupies all sites (AV-HABA4). Biotin replaces HABA relative to the koff of the dye as shown for the first step (Eq 1) and then repeated for all sites. Having greater affinity, B7 occupies all sites at the end of the reaction and the measured kon is related to the affinities of the ligand bound protein.
The reaction is monitored by the HABA absorbance changes at 500 nm as it is replaced by unlabeled B7; yielding the relaxation constant of the reaction (Relaxation, Eq 2) which contains information of the B7 association rate constant of the open binding site, k1AV−HABA3 to form a full saturated complex (AV-HABA4) and the dissociation rate of that full complex, k−1AV−HABA4 , to yield a complex with three HABA molecules (AV-HABA3). In the subsequent steps, B7 replaces HABA as the ligand but the release of HABA creates an unoccupied site that remains in the same state. In summary, the experiment was designed to acquire the pseudo-first order association rate constant of B7 binding ( konB ) to the solely free binding site in a complex occupied by three HABA molecules (AV-HABA3).
The reciprocal of the relaxation constant (1/Relaxation) is plotted vs. the [HABA]/[B] concentration ratio (Eq 3) allowing to calculate: k−1AV−HABA4 and k1AV−HABA3 by solving for the intercept ( 1/k−1AV−HABA4 ) and the respective slope: m=k1AV−HABA3/(k−1AV−HABA4∙konB) . The exponential decays were analyzed by the method of Foss. There was no departure from simple first order decay in the relaxation, justifying the use of the following model and equations.

de-glycosylated AV = biological target: T2, de-glycosylated AV (Gallus gallus, UniProt P02701); experiment: Stopped-flow association kinetics with endoglycosidase H de-glycosylated avidin; type: binding
T2 construct: purchased Calbiochem (La Jolla, CA)
T2 sequence (P02701 25-152): as above
Protocol: These reactions were carried out in a buffered solution of 10 mM Tris-HCl, 100 mM KCl, 2.5 mM MgCl2 and 1 mM CaCl2 at pH 8 and only AV-BcO reactions included pH 9 and 10. The concentrations, after mixing, were of 20 nM of dye-labeled B7 probe and 260 nM, 520 nM or 1040 nM of AV; and 200 nM, 300 nM, 400 nM or 800 nM of SAV at temperatures of 10, 15, 20 and 25°C. The deglycosylation of AV (for comparative association reactions) was carried out using the provided standard protocol with endoglycosidase H [47], both with and without incubation of a denaturant solution (2% SDS and 1M 2-mercaptoethanol).
The reactions were collected with the SF instrument, described previously. The fluorescence signal was collected through a 520 nm interference filter (Oriel Corp., Stratford, CT) with a detector time constant and SF dead time of 1 μs and 1 ms, respectively. The excitation light was provided by the Coherent Ar^+ ion laser (described above) at 488 nm with […] of incident power on the reaction cuvette. The laser source was followed by the photo-elastic modulator described above with the axis oriented 45^o with respect to the electric vector of the incident light and with the half-wave modulation (50 kHz) set for 488 nm excitation. The demodulation circuitry following the photomultiplier provided a DC(t) and a rectified AC(t) which were converted to digital data by a high-speed digitizer (PCI-5122) from National Instruments (Austin, TX) with 14-bit resolution and 100 MHz bandwidth, through channels 0 and 1. The data acquisition was controlled by LabVIEW (Vr 8) software at a collection rate of 6120 data points/second and stored in spreadsheets. The AC(t) and DC(t) data were baseline corrected before obtaining the signal ratio (Eq 4) as a function of time (ρt).

avidin (AV) [2] = biological target: T1, avidin (AV); experiment: Time-resolved anisotropy, cone angle, AV complex; type: physicochemical; conditions: for Cone Angle Ω: AV complex (AB1), 20°C; for W: complex with AV
Protocol: The lifetimes (τ), steady state anisotropies (rss), time-resolved anisotropies (rt) and quantum yields (QY) of the complexes (at 20 ± 0.1°C and pH 8) were collected with a dye-labeled B7 probe concentration of 20–40 nM and 1040–2080 nM of either protein (AV or SAV) to ensure that only one binding site in the tetramer was filled with a ligand (AB1 filling model).
The lifetimes were collected in a FluoTime100 fluorescence spectrometer (PicoQuant, GmbH, Berlin, Germany) with the excitation light source provided by a picosecond pulsed diode laser (PicoQuant, GmbH, Berlin, Germany) at 470 nm and 20 MHz. The emission was collected at 520 nm through a non-fluorescing 520 nm interference filter (Oriel Corp., Stratford, CT) followed by a liquid filter of 1cm path length containing 24 mM acetate buffered dichromate at pH 4, between the sample and detector to eliminate traces of excitation light. The fluorescence decays were fit by a nonlinear least-squares minimization based on the Marquardt algorithm embedded in the Fluofit software (PicoQuant GmbH). Twenty-eight decays were collected per sample, the decays were grouped in four sets, consisting of seven sample decays and one Instrument Response Function, IRF, for deconvolution proposes. The decay sets were globally fitted to mono- or bi-exponential decay models that were discriminated using the statistical parameter χ^2. The rt data were acquired with the fluorimeter described above equipped with a polarizer and an analyzer to acquire the parallel VV(t) and perpendicular VH(t) decays. The PicoQuant G factor was calculated according to: G = ∫HV(t)dt/∫HH(t)dt, where HV(t) and HH(t) were the decays collected with the emission polarizer selecting vertical and horizontal E-vector passing orientations, respectively, and the excitation polarizer set at horizontally position.
The r¯t values were calculated according to Eq 11 where the pre-exponential “f” corresponds to the slow phase that derives from the lifetime of the global motion (τG) which was fitted within a range of expected correlation time for the complex size; consequently, facilitating resolution of the fast correlation lifetime (τp) and the corresponding pre-exponential (1-f). r¯(t)=(1−f)∙exp(−t/τp)+f∙exp(−t/τG) (11) The f parameter was constrained to the observed rss (Eq 12) where F^(t) (Eq 13) is normalized (α1 + α2 = 1) and derived from the observed fluorescence decays of the complex. rss=0.4∫r¯(t)∙F^(t)dt (12) Where F^(t)=α1exp(−t/τ1)+α2exp(−t/τ2)/α1τ1+α2τ2 (13)
In a simple model, the transition moment is assumed to wobble within a cone of semi-apical angle Ω [59], where the cone axis is normal to the surface of a sphere that corresponds to the macromolecule. The angle Ω is calculated from Eq 14.

| Structure (SMILES) | kon (avidin (AV) [1]) [M⁻¹ s⁻¹] | ln(k) (de-glycosylated AV; deAV 15C (288.15 K), pH8) | k(average) (de-glycosylated AV; deAV 15C (288.15 K), pH8, full value) | k(average) (de-glycosylated AV; deAV 15C (288.15 K), pH8, scaled) | Cone Angle Ω (avidin (AV) [2]) [degrees] | W (avidin (AV) [2]) | kon (de-glycosylated AV; de-glycosylated AV, 15°C) [M⁻¹ s⁻¹] |
| --- | --- | --- | --- | --- | --- | --- | --- |
| O=C(O)CCCC[C@@H]1SC[C@@H]2NC(=O)N[C@@H]21 [B7, d-biotin] | 5.3e+06 ± 9e+11 |  |  |  |  |  |  |
| O=C(CCCC[C@@H]1SC[C@@H]2NC(=O)N[C@@H]21)NCCNC(=O)c1ccc(-c2c3ccc(=O)cc-3oc3cc(O)ccc23)c(C(=O)O)c1 [BFl, Biotin-4-fluorescein] |  | 15.5 | 5.36E+06 | 5.4 | 51 ± 2 | 51 |  |
| NC(CCCCNC(=O)CCCC[C@@H]1SC[C@@H]2NC(=O)N[C@@H]21)C(=O)NCCCCCNC(=O)c1ccc(-c2c3cc(F)c(=O)cc-3oc3cc(O)c(F)cc23)c(C(=O)O)c1 (stereo partly drawn) [BcO, Oregon green 488 Biocytin] |  |  |  |  | 50 ± 2 | 50 | 3.7e+06 |
